From patent US20130316958A1 (University of Southern California, priority 2010, published 2013)

Legend:
[1] = test system: NIH3T3 cells; experiment: GFP-LC3 autophagy with ectopic FLIP expression; type: cell-based; settings: Hank's solution 4 hr or 2 μM rapamycin 3 hr
Description: At 12-16 hours post-transfection with GFP-LC3, NIH3T3 cells containing vector or the FLIP gene were treated with Hank's solution for 4 hr or with 2 μM rapamycin for 3 hr. Subsequently, GFP-LC3 was detected using an inverted fluorescence microscope, autophagy was quantified as means (±SD) of the combined results from three independent experiments, and autophagosomes were visualized through scanning electron microscopy. NIH3T3-Vector, NIH3T3-KSHV-vFLIP, and NIH3T3-MCV-159L cells were treated with Hank's solution for 4 hr, followed by immunoblotting with anti-LC3 and anti-βTubulin. At 12-16 hr post-transfection with GFP-LC3, TREX-BCBL-Vector and TREX-BCBL-vFLIP cells were treated with doxycycline for 24 hr, followed by incubation with 2 μM rapamycin for an additional 12 hr. The detection of GFP-LC3 and autophagy levels was performed as described above, vFLIP expression was detected by IB with anti-Flag, and autophagosomes were visualized by scanning EM. TNF-induced apoptosis and NF-κB luciferase assay were performed as previously described (Matta and Chaudhary (2004) Proc. Natl. Acad. Sci. USA 101:9399-9404).
The anti-autophagic properties of vFLIP, as well as the related cFLIP, HSV, and MCV, were evaluated by ectopic expression of HVS, vFLIP, MCV 159L, and the short form of cFLIP (cFLIPs) in NIHI3T3 cells. DNA fragments corresponding to the coding sequences of the KSHV-vFLIP, human cFLIPs, MCV-MC159, and HVS-vFLIP genes were amplified via polymerase chain reaction and subcloned into pcDNA5/FRT/TO between the AflII and BamHI restriction sites or pEF-IRES-puro between the AflII and XbaI sites. Starvation studies were carried out by transfecting cells containing vector or the FLIP gene with GFP-LC3, then 12-16 h post-transfection, treating the cells with Hank's solution for 4 hr or with 2 μM rapamycin for 3 hr. Autophagy was assessed by GFP-LC3 redistribution using an inverted fluorescence microscope, quantifying autophagy as means (±SD) of the combined results from three independent experiments. Autophagosomes were visualized through scanning electron microscopy. […]

[2] = test system: human Atg3 deletion mutants; experiment: GST pulldown with Atg3 deletion mutants; type: binding; settings: GST-Atg3, N-terminal and C-terminal regions
Source text: The overall structure of yeast Atg3 has a unique hammer-like shape with the N-terminal and C-terminal regions discretely responsible for Atg7 and Atg8 (equivalent to mammalian LC3) binding, respectively. (Yamada et al. (2007) J. Biol. Chem. 282:8036-8043). Based on the structure of yeast Atg3, human Atg3 deletion mutants fused with a GST mammalian expression vector were constructed: GST-Atg31-93, GST-Atg3193-268, GST-Atg3268-315, and GST-Atg3193-315-GST-tagged hATG3 and hATG3 mutant genes were cloned into a pcDNA5/FRT/TO derivative encoding an N-terminal GST epitope tag between the BamHI and NotI sites. GST pulldown with Flag-KSHV vFLIP, Flag-cFLIPs, Flag-MCV 159L, or Flag-HVS vFLIP along with GST-Atg3, GST-Atg3 N-terminal region (Nt), or GST-Atg3 C-terminal region (Ct) was performed as described above and was followed by immunoblotting with aFlag or aGST.

[3] = target: T1, Atg3-LC3 interaction (Homo sapiens, UniProt Q9NT62); experiment: Competition of vFLIP with LC3 for Atg3 binding (GST pulldown); settings: increasing amount of Flag-vFLIP, HEK293T
T1 construct: expressed in transfected cells; host or cells: HEK293T
T1 sequence (Q9NT62 whole entry): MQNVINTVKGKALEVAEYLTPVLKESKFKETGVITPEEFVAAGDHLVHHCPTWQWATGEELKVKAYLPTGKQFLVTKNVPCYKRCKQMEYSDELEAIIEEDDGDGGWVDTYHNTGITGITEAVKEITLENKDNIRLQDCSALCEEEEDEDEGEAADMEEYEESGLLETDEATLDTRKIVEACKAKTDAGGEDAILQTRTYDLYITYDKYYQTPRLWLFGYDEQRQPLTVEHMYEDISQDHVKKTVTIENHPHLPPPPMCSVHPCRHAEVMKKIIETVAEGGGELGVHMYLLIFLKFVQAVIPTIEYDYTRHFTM
Description: Due to identical Atg3 binding patterns seen in vFLIP and LC3, the ability of vFLIP to directly compete with LC3 for Atg3 binding was tested. HEK293T cells were transfected with GST-Atg3 and GFP-LC3 along with increasing amount of Flag-vFLIP. At 48 hr post-transfection, GST pulldown was performed as described above, followed by immunoblotting with αGFP or αFlag.

[4] = test system: TREX-BCBL cells; experiment: vFLIP expression in KSHV-infected BCBL1 cells: autophagy, growth suppression and death; type: cell-based
Description: To investigate whether vFLIP expression suppresses autophagy in virus-infected cells, a KSHV-infected BCBL1 cell line was constructed (TREX-BCBL) in which a Flag-tagged KSHV-vFLIP gene was integrated into the chromosomal DNA under the control of a tetracycline-inducible promoter. (Nakamura et al. (2003) J. Virol. 77:4205-4220). At 12-16 hr post-transfection with GFP-LC3, TREX-BCBL-Vector and TREX-BCBL-vFLIP cells were treated with Doxycycline for 24 hr, followed by incubation with 2 μM rapamycin for an additional 12 hr. The detection of GFP-LC3 and autophagy levels was performed as described above, vFLIP expression was detected by IB with anti-Flag, and autophagosomes were visualized by scanning EM (scale bar=50 nm). Treatment of these cells with doxycycline strongly activated Flag-vFLIP expression.
The effect of vFLIP on autophagy was tested in a KSHV-infected BCBL1 cell line. TREX-BCBL-Vector and TREX-BCBL-vFLIP cells were treated with rapamycin or left untreated for 6 days in the presence of doxycycline and subjected to scanning EM, to examine the morphologies of over 100 dead cells and quantify cell death for apoptosis and autophagic death, or subjected to PI staining and cell cycle analysis.
All siRNAs were produced by Dharmacon Research. siRNAs specific for human Beclin1 (5′[…]3′) and a nonspecific scrambled control siRNA were transfected using DharmaFect reagent (Dharmacon) according to the manufacturer's instructions. At 48-72 hr post-transfection, cells were analyzed for autophagy. Trypan blue staining and a Beckman Coulter Z2 Particle Count and Size analyzer were used to determine cell death (as a percentage) at day 5.

KSHV vFLIP: viral FLICE-like inhibitor protein of Kaposi's sarcoma-associated herpesvirus, expressed in cells
suppression of starvation- and rapamycin-induced autophagy [1]: strongly suppressed starvation- and rapamycin-induced autophagy
Atg3 region bound (GST pulldown) [2]: independently bound either the aa193-268 or aa268-315 region of the C-terminal of Atg3
effect on Atg3-LC3 interaction [3]: marked decrease of Atg3-LC3 interaction
block of rapamycin-induced autophagy and cell death ([4]; TREX-BCBL-vFLIP cells): readily blocked rapamycin-induced autophagy and cell death
inhibition of peptide-induced autophagy and cell death ([4]; TREX-BCBL-vFLIP cells): minimal
suppression of rapamycin-induced autophagy in TREX-BCBL cells ([4]; doxycycline 24 hr, 2 μM rapamycin 12 hr): extensively suppressed rapamycin-induced autophagy
block of rapamycin- or zVAD-induced growth suppression and autophagic death ([4]; ectopic expression in BCBL1 cells): almost completely blocked
